Source: patent US7250258B2 (priority 2003, dated 2007)

How the values were obtained:
[1] = system: AD patients; details: galantamine therapy; cited from earlier work
[2] = system: Caucasian patients diagnosed with Alzheimer's Disease; assay: Clinical association of CDK5 haplotype copy number with galantamine response (ΔADAS-cog responder vs non-responder, logistic regression); type: in vivo, human
Description: Following 3, 5, 6 or 12 months of treatment in the GAL-INT2, GAL-USA 10, GAL-INT-1 and SAB-USA-25 trials, respectively, the severity of symptoms in patients were evaluated using the cognitive subscale of the Alzheimer's Disease Assessment Scale (ADAS-cog) (Rosen et al., supra; Rockwood et al., supra; Tariot et al., supra; Wilcock et al., supra). The ADAS-cog measures cognitive function, including spoken language ability, comprehension of spoken language, recall of test instructions, word-finding difficulty in spontaneous speech, following commands, naming objects and fingers, constructional praxis, ideational praxis, orientation, word-recall task and word-recognition task (Alzheimer's Insights Online, supra).
For the clinical association study described in Example 2 below, 174 patients were selected and used to populate two groups in a tailed sampling strategy, intended to enrich alleles correlating with drug response in the population. […] Patients were assigned to responder and non-responder groups based on having a change in ADAS-cog score (ΔADAS-cog) that met a cut-off value that was chosen based on the differences in treatment times in the four clinical trials described above. The ΔADAS-cog cut-off values and treatment times used for each responder and non-responder group from each of the four clinical trials are shown in Table 6 below.
The statistical analyses compared ΔADAS-cog in patients with one copy vs. zero copies, two copies vs. zero copies, and two copies vs. one copy (within a patient's genome) of a particular allele, using a logistic regression analysis on two-degrees of freedom to associate clinical response with a particular haplotype. The following covariates were also included: age, gender, history, smoking, ADAS-cog baseline, dose (BID), body mass index, and CYP2D6. The logistic regression included assessment of associations between the haplotypes and the binary outcome of clinical response.
For the results obtained on the analyses, adjustments were made for multiple comparisons, using a permutation test (MULTIVARIATE PERMUTATION TESTS: WITH APPLICATIONS IN BIOSTATISTICS, Pesarin, John Wiley and Sons, New York, 2001). In this test, a sub-haplotype's data for each observation were kept constant, while all the remaining variables (outcome and covariates) were randomly permuted so that covariates always stayed with the same outcome. The permutation model was fitted for each of the several haplotypes, and the lowest p-value was kept. In total, 1000 permutations were done.

[3] = system: AD patients; details: presence of the ApoE4 allele; cited from earlier work

Row | SMILES | most common side effects [1] | Subject Count for Haplotype with Highest Level Response ([2]; haplotype (1), 0 copies, of 41 subjects) | Subject Count for Haplotype with Highest Level Response ([2]; haplotype (1), 1 copy, of 88 subjects) | Subject Count for Haplotype with Highest Level Response ([2]; haplotype (1), 2 copies, of 45 subjects) | Subject Count for Haplotype with Highest Level Response ([2]; haplotype (2), 0 copies, of 41 subjects) | Subject Count for Haplotype with Highest Level Response ([2]; haplotype (2), 1 copy, of 88 subjects) | Subject Count for Haplotype with Highest Level Response ([2]; haplotype (2), 2 copies, of 45 subjects) | response to treatment in presence of ApoE4 polymorphism [3]
1 | COc1ccc2c3c1O[C@H]1C[C@@H](O)C=C[C@@]31CCN(C)C2 [galantamine] | nausea, vomiting, diarrhea, dizziness and anorexia | 26 (0) | 46 (1) | 13 (2) | 26 (0) | 46 (1) | 13 (2) | 
2 | Nc1c2c(nc3ccccc13)CCCC2 [tacrine] |  |  |  |  |  |  |  | reduced response to treatment
